Columns and labels:
ΔF508-CFTR [1] = biological target: T1, ΔF508-CFTR (Homo sapiens, UniProt P13569, DEL508-508); test: Ussing measurements, hBEs homozygous for ΔF508; assay type: cell-based; conditions: compound at 10 uM and VX-809 at 3 uM, relative to VX-809 (3 uM); 24 h treatment
T1 construct: primary lung epithelial cells (hBEs) homozygous for the Cystic Fibrosis-causing ΔF508 mutation; endogenous in cells; host or cells: primary lung epithelial cells (hBEs) homozygous for ΔF508
Procedure: As discussed above, Ussing measurements can be used to measure CFTR activity. In this example, primary lung epithelial cells (hBEs) homozygous for the Cystic Fibrosis-causing ΔF508 mutation were differentiated for a minimum of 4 weeks in an air-liquid interface on SnapWell filter plates prior to the Ussing measurements. Cells were apically mucus-washed for 30 minutes prior to treatment with compounds. The basolateral media was removed and replaced with media containing the compound of interest diluted to its final concentration from DMSO stocks. Treated cells were incubated at 37° C. and 5% CO2 for 24 hours. […] The short-circuit current was measured in voltage clamp-mode (Vhold=0 mV), and the entire assay was conducted at a temperature of 36° C.-36.5° C. Once the voltages stabilized, the chambers were clamped, and data was recorded by pulse readings every 5 seconds. Following baseline current stabilization, the following additions were applied and the changes in current and resistance of the cells was monitored: • 1. […]
The inhibitable current (that current that is blocked by CFTRinh-172) is measured as the specific activity of the ΔF508-CFTR channel, and increases in response to compound in this activity over that observed in vehicle-treated samples are identified as the correction of ΔF508-CFTR function imparted by the compound tested. […]

[2] = tested on: CFTR in G551D/F508del HBEs; test: Ussing measurements, G551D/F508del HBEs; assay type: cell-based, human; conditions: Ussing; Compound A 10 uM, ivacaftor 1 uM
Procedure: (§1) As discussed above, Ussing measurements was used to measure CFTR activity. In this method, primary lung epithelial cells (hBEs) with a Cystic Fibrosis-causing class III mutation were differentiated for a minimum of 4 weeks in an air-liquid interface on SnapWell™ filter plates prior to the Ussing measurements. Cells were apically mucus-washed for 30 minutes prior to treatment with compounds. The basolateral media was removed and replaced with media containing the compound of interest diluted to its final concentration from DMSO stocks. Treated cells were incubated at 37° C. and 5% CO2 for 24 hours. At the end of the treatment period, the cells on filters were transferred to the Ussing chamber and equilibrated for 30 minutes. The short-circuit current was measured in voltage clamp-mode (Vhold=0 mV), and the entire assay was conducted at a temperature of 36° C.-36.5° C. Once the voltages stabilized, the chambers were clamped, and data was recorded by pulse readings every 5 seconds. Following baseline current stabilization, the following additions were applied and the changes in current and resistance of the cells was monitored: • 1. Benzamil to the apical chamber to inhibit ENaC sodium channel. • 2. Forskolin to both chambers to activate ΔF508-CFTR by phosphorylation. • 3. Ivacaftor or Genistein to the apical chamber to potentiate ΔF508-CFTR channel opening. • 4. CFTRinh-172 to the apical chamber to inhibit ΔF508-CFTR Cl-conductance.
(§2) The forskolin-sensitive current and inhibitable current (that potentiated current that is blocked by CFTRinh-172) were measured as the specific activity of the ΔF508-CFTR channel, and increase in response to compound in this activity over that observed in vehicle-treated samples were identified as the correction of ΔF508-CFTR function imparted by the compound tested.
(§3) The results are shown below in Tables 5 and 6. Compound A is 10 uM and VX-809 is 3 uM and ivacaftor is 1 uM.

[3] = tested on: CFTR in R117H/F508del HBEs; test: Ussing measurements, R117H/F508del HBEs; assay type: cell-based, human; conditions: Ussing; Compound A 10 uM, ivacaftor 1 uM
Procedure: as §1, §2, §3

ΔF508-CFTR [4] = biological target: T1, ΔF508-CFTR; test: hBE equivalent current (Ieq) assay, primary lung epithelial cells homozygous for ΔF508; assay type: cell-based; conditions: 24 h treatment; for leq: activity of compound with VX-809, % of VX-809 (AUC of equivalent chloride current): compound at 10 uM and VX-809 at 1 uM, relative to VX-809 (1 uM); for leq: activity relative to VX-809 (AUC of equivalent chloride current): compound alone run at 10 uM, relative to VX-809 at 1 uM
Procedure: Primary lung epithelial cells homozygous for the Cystic Fibrosis-causing ΔF508 mutation were differentiated for a minimum of 4 weeks in an air-liquid interface on Costar 24 well HTS filter plates prior to the equivalent current (Ieq) measurements. Cells were apically mucus-washed for 30 minutes 24h prior to treatment with compounds. The basolateral media was removed and replaced with media containing the compound of interest diluted to its final concentration from DMSO stocks. Treated cells were incubated at 37° C. and 5% CO2 for 24 hours. At the end of the treatment period, the media was changed to the Ieq experimental solution for 30 minutes before the experiment and plates are maintained in a CO2-free incubator during this period. The plates containing the cells were then placed in pre-warmed heating blocks at 36° C.±0.5 for 15 minutes before measurements are taken. The transepithelial voltage (VT) and conductance (GT) were measured using a custom 24 channel current clamp (TECC-24) with 24 well electrode manifold. The Ieq assay measurements were made following additions with standardized time periods: • 1. The baseline VT and GT values were measured for approximately 20 minutes. • 2. Benzamil was added to block ENaC for 15 minutes. • 3. Forskolin plus VX-770 (ivacaftor) were added to maximally activate ΔF508-CFTR for 27 minutes. • 4. Bumetanide was added to inhibit the NaK2Cl cotransporter and shut-off secretion of chloride.
The activity data captured was the area under the curve (AUC) for the traces of the equivalent chloride current. The AUC was collected from the time of the forskolin/VX-770 addition until the inhibition by bumetanide addition. Correction in response to compound treatment was scored as the increase in the AUC for compound-treated samples over that of vehicle-treated samples.
The results are shown below in Table 2. ++ indicates activity ≥25% run at 10 uM of VX-809 at 1 uM, + indicates activity 10 to <25% run at 10 uM of VX-809 at 1 uM, ** indicates activity ≥200% of VX-809 (1 uM) with compound at 10 uM and VX-809 at 1 uM; * indicates activity 100-200% of VX-809 (1 uM) with compound at 10 uM and VX-809 at 1 uM. ^## indicates activity ≥200% of VX-809 (3 uM) with compound at 10 uM and VX-809 at 3 uM; ^# indicates activity 100-200% of VX-809 (3 uM) with compound at 10 uM and VX-809 at 3 uM.

T1 sequence (P13569 with tags, fused parts or gaps DEL508-508): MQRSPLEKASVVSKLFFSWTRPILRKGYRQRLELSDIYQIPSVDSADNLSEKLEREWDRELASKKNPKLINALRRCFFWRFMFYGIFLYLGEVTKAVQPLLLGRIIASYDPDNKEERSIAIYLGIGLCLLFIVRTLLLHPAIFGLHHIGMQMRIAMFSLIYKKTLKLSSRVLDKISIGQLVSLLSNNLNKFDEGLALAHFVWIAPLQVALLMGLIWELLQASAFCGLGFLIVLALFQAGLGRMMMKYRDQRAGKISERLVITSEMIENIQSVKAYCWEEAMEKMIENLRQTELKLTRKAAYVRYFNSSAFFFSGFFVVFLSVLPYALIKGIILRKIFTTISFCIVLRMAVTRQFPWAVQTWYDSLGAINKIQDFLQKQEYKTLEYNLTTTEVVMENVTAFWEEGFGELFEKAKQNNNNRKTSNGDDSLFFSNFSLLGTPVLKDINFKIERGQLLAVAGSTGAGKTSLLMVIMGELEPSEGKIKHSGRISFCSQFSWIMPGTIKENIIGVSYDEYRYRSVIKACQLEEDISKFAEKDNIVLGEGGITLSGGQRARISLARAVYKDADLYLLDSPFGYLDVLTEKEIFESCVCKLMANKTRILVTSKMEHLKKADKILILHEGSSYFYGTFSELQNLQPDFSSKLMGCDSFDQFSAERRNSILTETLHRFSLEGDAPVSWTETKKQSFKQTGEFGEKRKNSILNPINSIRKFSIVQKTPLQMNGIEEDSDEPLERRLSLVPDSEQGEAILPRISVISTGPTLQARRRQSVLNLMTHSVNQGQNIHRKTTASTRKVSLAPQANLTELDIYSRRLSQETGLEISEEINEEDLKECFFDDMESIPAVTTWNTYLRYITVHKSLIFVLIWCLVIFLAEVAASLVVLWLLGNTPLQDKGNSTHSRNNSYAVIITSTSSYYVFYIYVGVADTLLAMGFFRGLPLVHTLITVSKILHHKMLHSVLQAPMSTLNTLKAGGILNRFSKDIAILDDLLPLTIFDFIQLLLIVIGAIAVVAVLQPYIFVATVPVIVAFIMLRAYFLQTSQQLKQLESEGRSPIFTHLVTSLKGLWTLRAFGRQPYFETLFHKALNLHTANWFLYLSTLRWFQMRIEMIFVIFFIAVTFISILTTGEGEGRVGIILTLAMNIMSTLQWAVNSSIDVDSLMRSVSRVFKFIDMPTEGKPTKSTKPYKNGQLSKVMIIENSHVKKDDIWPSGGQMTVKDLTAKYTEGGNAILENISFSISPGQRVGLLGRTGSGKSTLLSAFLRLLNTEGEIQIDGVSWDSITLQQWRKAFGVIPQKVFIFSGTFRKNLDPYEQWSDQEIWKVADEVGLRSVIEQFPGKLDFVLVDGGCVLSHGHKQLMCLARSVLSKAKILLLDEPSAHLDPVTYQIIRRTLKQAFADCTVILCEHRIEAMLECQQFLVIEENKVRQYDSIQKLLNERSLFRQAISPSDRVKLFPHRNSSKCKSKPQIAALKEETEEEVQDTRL

Row | Structure (SMILES) | leq: activity of compound with VX-809, % of VX-809 (AUC of equivalent chloride current) (ΔF508-CFTR [4]) | leq: activity relative to VX-809 (AUC of equivalent chloride current) (ΔF508-CFTR [4]) | also measured
1 | O=C(N[C@H]1C[C@H](n2nncc2CO)C1)c1cc(-c2ccccc2)no1 [Example 5, N-(trans-3-(5-(hydroxymethyl)-1H-1,2,3-triazol-1-yl)cyclobutyl)-3-phenylisoxazole-5-carboxamide] | – | – | Ussing: activity of compound with VX-809, % of VX-809 (ΔF508-CFTR [1]): ## (## indicates activity ≥200% of VX-809 (3 uM) with compound at 10 uM and VX-809 at 3 uM)
2 | CC(C)(C)c1cc(C(C)(C)C)c(NC(=O)c2c[nH]c3ccccc3c2=O)cc1O [ivacaftor, reference compound] | – | – | Activity in G551D/F508del HBEs (relative to ivacaftor activity) [2]: 100%; Activity in R117H/F508del HBEs (relative to ivacaftor activity) [3]: 100%
3 | C[C@@H](O)c1nnc(CC2CC(NC(=O)c3cc(-c4ccc(F)cc4)no3)C2)s1 (stereo partly drawn) [Example 44, 3-(4-Fluorophenyl)-N-[(1r,3r)-3-([5-[(1R)-1-hydroxyethyl]-1,3,4-thiadiazol-2-yl]methyl)cyclobutyl]-1,2-oxazole-5-carboxamide] | ** (** indicates activity ≥200% of VX-809 (1 uM) with compound at 10 uM and VX-809 at 1 uM) | – | –
4 | C[C@@H](O)c1nnc(CC2CC(NC(=O)c3cc(-c4ccc(F)cc4)no3)C2)o1 (stereo partly drawn) [Example 40, 3-(4-Fluorophenyl)-N-[(1r,3r)-3-([5-[(1R)-1-hydroxyethyl]-1,3,4-oxadiazol-2-yl]methyl)cyclobutyl]-1,2-oxazole-5-carboxamide] | ** (** indicates activity ≥200% of VX-809 (1 uM) with compound at 10 uM and VX-809 at 1 uM) | – | –
5 | C[C@H](O)c1cn(C[C@H]2C[C@@H](NC(=O)c3cc(-c4ccccc4)no3)C2)nn1 [Example 58, 3-Phenyl-N-[(1s,3s)-3-([4-[(1S)-1-hydroxyethyl]-1H-1,2,3-triazol-1-yl]methyl)cyclobutyl]-1,2-oxazole-5-carboxamide] | * (* indicates activity 100-200% of VX-809 (1 uM) with compound at 10 uM and VX-809 at 1 uM) | – | –
6 | O=C(NCCN1CCOCC1)c1cc(-c2ccccc2)co1 [Example 10, N-(2-morpholinoethyl)-4-phenylfuran-2-carboxamide] | – | + (+ indicates activity 10 to <25% run at 10 uM of VX-809 at 1 uM) | –
7 | O=C(NCCCn1ccnc1)c1cc(-c2ccccc2)co1 [Example 11, N-(3-(1H-imidazol-1-yl)propyl)-4-phenylfuran-2-carboxamide] | – | ++ (++ indicates activity ≥25% run at 10 uM of VX-809 at 1 uM) | –
8 | C[C@H](O)c1cnnn1C[C@H]1C[C@@H](NC(=O)c2cc(-c3ccccc3)no2)C1 [Example 57, 3-Phenyl-N-[(1s,3s)-3-([5-[(1S)-1-hydroxyethyl]-1H-1,2,3-triazol-1-yl]methyl)cyclobutyl]-1,2-oxazole-5-carboxamide] | ** (** indicates activity ≥200% of VX-809 (1 uM) with compound at 10 uM and VX-809 at 1 uM) | – | –
9 | C[C@@H](O)c1nnc(CC2CC(NC(=O)c3cc(-c4ccccc4)no3)C2)s1 (stereo partly drawn) [Example 42, 3-Phenyl-N-[(1r,3r)-3-([5-[(1R)-1-hydroxyethyl]-1,3,4-thiadiazol-2-yl]methyl)cyclobutyl]-1,2-oxazole-5-carboxamide] | * (* indicates activity 100-200% of VX-809 (1 uM) with compound at 10 uM and VX-809 at 1 uM) | – | –
10 | C[C@@H](O)c1nnc(CC2CC(NC(=O)c3cc(-c4ccccc4)no3)C2)s1 (stereo partly drawn) [Example 41, 3-Phenyl-N-[(1s,3s)-3-([5-[(1R)-1-hydroxyethyl]-1,3,4-thiadiazol-2-yl]methyl)cyclobutyl]-1,2-oxazole-5-carboxamide] | ** (** indicates activity ≥200% of VX-809 (1 uM) with compound at 10 uM and VX-809 at 1 uM) | – | –
11 | O=C(NCC1CCCO1)c1cc(-c2ccccc2)no1 (centres unmarked) [Example 2, 3-phenyl-N-((tetrahydrofuran-2-yl)methyl)isoxazole-5-carboxamide] | – | ++ (++ indicates activity ≥25% run at 10 uM of VX-809 at 1 uM) | –
12 | COCCNC(=O)c1cc(-c2ccccc2)co1 [Example 8, N-(2-methoxyethyl)-4-phenylfuran-2-carboxamide] | – | + (+ indicates activity 10 to <25% run at 10 uM of VX-809 at 1 uM) | –
13 | O=C(NCC1CCCO1)c1cc(-c2ccccc2)co1 (centres unmarked) [Example 9, 4-phenyl-N-((tetrahydrofuran-2-yl)methyl)furan-2-carboxamide] | – | ++ (++ indicates activity ≥25% run at 10 uM of VX-809 at 1 uM) | –

From US11083709B2, “Compounds, compositions, and methods of increasing CFTR activity” (Proteostasis Therapeutics, Inc., priority 2015, dated 2021)
